Test results from publication PMC5122774, “Cloning of Glycerophosphocholine Acyltransferase (GPCAT) from Fungi and Plants” (The Journal of Biological Chemistry, 2016).

B1: ScGPCAT (Gpc1p) (Saccharomyces cerevisiae S288C) (protein)
chain: MYKLDNNDIDDETNNSVSLTSLLEFLDPIASKVVSKYYHGSHLSKAEQKLRNFEGFRRRKPHHEHDSHHPHHLNRSRSFLQLEDFKVRALQRIRNLDKPLDSIFFKNSSRLEKAFYPFTLFNIFFIGFLMGRFPEWFHVYYTILFFVLMPIRFYTYYKTKNHYFLADFCYFVNMLCLLFIWIFPYSYSLFQSCFAFTFGTLCFAVITWRNSLVIHSIDKTTSCFIHIIPPCVMYVIYHGLPLEYKIERFPGAIIQSELDIKKNILWTSLYYLVWQSLYHYFITLKKSSKIKSGERMTSFEYLTTHQFKNFWAVKLRSPWPMIIYTLSQYFYQLFTMLLCGIWIRYKLAAALFLTIVFLWASHNGATYYIDHYGKNFEKEVDRLRLEVENLQQKLQPDSDAVISDASVNDKDYLNVNRDEDFDDSSSVSSKSD
notes: full-length, 52 kDa, eight predicted TM helices; pYES-DEST52 (GAL1 promoter) in yeast ale1Δ gpc1Δ, microsomal membranes

Key:
RcGPCAT = target: T1, RcGPCAT (Ricinus communis, UniProt B9RK42); experiment: radiometric acyltransferase assay, yeast microsomes; assay type: biochemical; settings: [14C]GPC 4 mM; pH 7.2 phosphate, 1% BSA, 30 °C
T1 construct: gene GPC1

[1] = substrate: C[N+](C)(C)CCOP(=O)([O-])OC[C@H](O)CO; experiment: as above; assay type: biochemical, Saccharomyces cerevisiae; settings: 18:1-CoA as acyl donor, pH 7.2 phosphate, 1% BSA, 30 °C, labelled compound

T1 sequence (B9RK42 whole entry, looked up): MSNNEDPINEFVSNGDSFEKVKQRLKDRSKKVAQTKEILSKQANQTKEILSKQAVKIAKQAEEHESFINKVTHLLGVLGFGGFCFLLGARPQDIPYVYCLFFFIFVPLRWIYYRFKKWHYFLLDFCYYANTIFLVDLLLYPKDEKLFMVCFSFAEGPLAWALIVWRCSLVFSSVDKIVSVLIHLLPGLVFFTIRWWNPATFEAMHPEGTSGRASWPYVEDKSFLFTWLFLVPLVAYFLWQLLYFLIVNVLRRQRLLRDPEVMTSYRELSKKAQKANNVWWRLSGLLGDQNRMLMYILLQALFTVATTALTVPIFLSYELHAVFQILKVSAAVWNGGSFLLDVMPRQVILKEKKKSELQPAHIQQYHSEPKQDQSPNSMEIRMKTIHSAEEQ

Molecule	radiometric acyltransferase assay, yeast microsomes (RcGPCAT)	Km [1] [µM]
CCCCCC[C@@H](O)C/C=C\CCCCCCCC(=O)SCCNC(=O)CCNC(=O)[C@H](O)C(C)(C)COP(=O)(O)OP(=O)(O)OC[C@H]1O[C@@H](n2cnc3c(N)ncnc32)[C@H](O)[C@@H]1OP(=O)(O)O [ricinoleoyl-CoA]	the castor GPCAT accepted all of the acyl-CoAs tested, including ricinoleoyl-CoA	
B1		450
